Laboratory results from patent US12404232B2, “Compounds and compositions for intracellular delivery of therapeutic agents” (ModernaTX, Inc., priority 2015, dated 2025).

Columns and labels:
mice [1] = assay: Cytokine induction (IL-6, IP-10) in mice after intravenous administration; assay type: in vivo; parameters: IL-6 / IP-10: unit not given here; settings: 0.5 mpk, 6 hours
Description: The introduction of foreign material into a mammalian body induces an innate immune response that promotes cytokine production. Such immune responses to, for example, nanoparticle compositions including therapeutic and/or prophylactics, are undesirable. The induction of certain cytokines is thus measured to evaluate the […] of nanoparticle compositions. The concentrations of various cytokines in mice upon intravenous administration of nanoparticle compositions presented in Table 1A at a dosage of 0.5 mpk was measured at 6 hours. The standard MC3 formulation and a PBS control were also tested. As is evident in Table 7, IL-6 induction was highest for compositions including Compounds 1, 3, 9, 19, and 26, while IP-10 induction was highest for compositions including Compounds 3, 4, 7, 20, and 26. IL-6 induction was lowest for compositions including Compounds 4, 11, 12, and 28. IP-10 induction was lowest for compositions including Compounds 10, 11, 12, 13, 15, 17, and 18.
The expression of hEPO and cytokine induction in mice intravenously administered a nanoparticle composition at a dose of 0.5 mpk were measured at 3, 6, and 24 hours. […] The expression of hEPO in mice intramuscularly administered a nanoparticle composition from Table 1B at a dose of 0.01 mpk were measured at 3, 6, and 24 hours. […] (see also FIG. 9.)

[2] = Particle size and polydispersity index of nanoparticle compositions (Zetasizer Nano ZS); assay type: physicochemical; settings: for Size (nm): nanoparticle composition lipid:DSPC:cholesterol:PEG-DMG 50:10:38.5:1.5 mol %, mRNA encoding Luc or hEPO (Table 1A); for PDI: nanoparticle composition 50:10:38.5:1.5 mol % (Table 1A)
Description: Nanoparticle compositions may be characterized by a variety of methods. For example, microscopy (e.g., transmission electron microscopy or scanning electron microscopy) may be used to examine the morphology and size distribution of a nanoparticle composition. Dynamic light scattering or potentiometry (e.g., potentiometric titrations) may be used to measure zeta potentials. Dynamic light scattering may also be utilized to determine particle sizes. Instruments such as the Zetasizer Nano ZS (Malvern Instruments Ltd, Malvern, Worcestershire, UK) may also be used to measure multiple characteristics of a nanoparticle composition, such as particle size, polydispersity index, and zeta potential.
A Zetasizer Nano ZS (Malvern Instruments Ltd, Malvern, Worcestershire, UK) can be used to determine the particle size, the polydispersity index (PDI) and the zeta potential of the nanoparticle compositions in 1×PBS in determining particle size and 15 mM PBS in determining zeta potential.
Initial studies were performed to compare the delivery efficiency of nanoparticle compositions including various compounds according to Formula (I), (IA), (II), (IIa), (IIb), (IIc), (IId) or (IIe). The cationic lipid MC3 is a current standard in the art. Accordingly, the standard MC3 formulation including about 50 mol % MC3, about 10 mol % DSPC, about 38.5 mol % cholesterol, and about 1.5 mol % PEG-DMG was used as a basis for this study. Nanoparticle compositions including DSPC as a phospholipid, cholesterol as a structural lipid, PEG-DMG as a PEG lipid, an RNA, and a compound according to Formula (I), (IA), (II), (IIa), (IIb), (IIc), (IId) or (IIe) selected from Compounds 1-159, 168-170, and 173-175 were prepared according to or via methods similar to those described in Examples 1 and 2. The ratios of the lipids were 50:10:38.5:1.5 mol % for the lipid according to Formula (I), (IA), (II), (IIa), (IIb), (IIc), (IId) or (IIe):DSPC:cholesterol:PEG-DMG. The RNA used was an mRNA encoding G5 luciferase (Luc) or G5 hEPO. Tables 1A-1B summarize the content and characteristics of the formulations. […]

mice [3] = assay: Luc expression (total flux) after intramuscular administration; assay type: in vivo; settings: 6 hours after intramuscular administration, Luc mRNA and H10 mRNA
Method: The numbers 1-7 in this figure correspond to MC3, Compounds 168-170, and 173-175 respectively.
(§1) In order to monitor how effectively various nanoparticle compositions deliver therapeutic and/or prophylactics to targeted cells, different nanoparticle compositions including a particular therapeutic and/or prophylactic (for example, a modified or naturally occurring RNA such as an mRNA) are prepared and administered to rodent populations. Mice are intravenously, intramuscularly, intraarterially, or intratumorally administered a single dose including a nanoparticle composition with a formulation such as those provided in Example 3. In some instances, mice may be made to inhale doses. Dose sizes may range from 0.001 mg/kg to 10 mg/kg, where 10 mg/kg describes a dose including 10 mg of a therapeutic and/or prophylactic in a nanoparticle composition for each 1 kg of body mass of the mouse. A control composition including PBS may also be employed.
(§2) The total flux (measured by area under the curve, AUC) induced by administration of a formulation including a given lipid relative to that induced by administration of a formulation including MC3 was also measured for several lipids.
Sample formulations including both modified luciferase (Luc) mRNA and H10 mRNA were prepared and administered intramuscularly and the resulting expression and immunogenicity were evaluated simultaneously. Formulations including compounds according to Formula (I), (IA), (II), (IIa), (IIb), (IIc), (IId) or (IIe) were prepared and administered at doses of 0.001 and 0.01 mpk (e.g., doses of 0.0005 mpk of a formulation including Luc mRNA and a formulation including H10 mRNA or doses of 0.005 mpk of a formulation including Luc mRNA and a formulation including H10 mRNA).
Sample formulations including modified luciferase (Luc) mRNA prepared and administered intramuscularly and the resulting expression and immunogenicity were evaluated simultaneously. Formulations including compounds according to Formula (I), (IA), (II), (IIa), (IIb), (IIc), (IId) or (IIe) were prepared and administered at dose of […] 0.01 mpk.
The fluxes measured upon intravenous and intramuscular administration are compared in Table 6. Fluxes are presented as fold increase over that measured for MC3 formulations.

mice [4] = assay: Luc expression (bioluminescence, total flux) after intravenous administration to mice; assay type: in vivo
Method: as §1
Upon administration of nanoparticle compositions to mice, dose delivery profiles, dose responses, and toxicity of particular formulations and doses thereof can be measured by enzyme-linked immunosorbent assays (ELISA), bioluminescent imaging, or other methods. For nanoparticle compositions including mRNA, time courses of protein expression can also be evaluated. Samples collected from the rodents for evaluation may include blood, sera, and tissue (for example, muscle tissue from the site of an intramuscular injection and internal tissue); sample collection may involve sacrifice of the animals.
The efficacy of the nanoparticle compositions presented in Table 1A was evaluated with a bioluminescence study. Formulations were administered intravenously to mice (n=6) at a dosage of 0.5 mg/kg (mpk) and bioluminescence measured at 3, 6, and 24 hour time points. The standard MC3 formulation and, in some instances, a control (e.g., a PBS control) were evaluated for comparison. […] In general, flux decreased as time progressed to less than 10% of the initial flux.
as §2
The tolerability and efficacy of nanoparticle compositions to non-human primates was also investigated using sample formulations including Compounds 18, 25, 26, and 48 and MC3 to determine if these compounds are differentiated in terms of protein expression. The formulations were prepared according to the standard MC3 formulation described above and included an hEPO mRNA. Table 30 includes details of the compositions tested, while Table 31 summarizes the relative expression of Luc and hEPO mRNA in mice and rats. Expression was measured 6 hours after administration.

SMILES	IL-6 (mice [1])	Size (nm) [2]	IP-10 (mice [1])	PDI [2]	Total flux (p/s) 0.001 mpk Dose (mice [3])	Total flux (p/s) 0.01 mpk Dose (mice [3])	further results
CCCCCCCCCOC(=O)CCCCCCCN(CCCCO)CCCCCCCC(=O)OC(CCCCCCCC)CCCCCCCC [Compound 20, Heptadecan-9-yl 8-((4-hydroxybutyl)(8-(nonyloxy)-8-oxooctyl)amino) octanoate]	126.83	111.5 nm					
CCCCCCCCC(CCCCCCCC)OC(=O)CCCCCCCN(CCO)CCCCCCCC(=O)OC(CCCCCCCC)CCCCCCCC [Compound 29, Di(heptadecan-9-yl) 8,8′-((2-hydroxyethyl)azanediyl)dioctanoate]	69.54		1362.81		7.64E+05 p/s	1.12E+07 p/s	
CCCC/C=C\CCC(CC/C=C\CCCC)OC(=O)CCCCCCCN(CCO)CCCCCC(=O)OCCCCCCCCCCC [Compound 61, (5Z,12Z)-heptadeca-5,12-dien-9-yl 8-((2-hydroxyethyl)(6-oxo-6-(undecyloxy)hexyl)amino)octanoate]		89.1 nm		0.11			
CCCCCCCCC(CCCCCCCC)OC(=O)CCCCCCCN(CCO)CCCCCCCC(=O)OC1CCC(CCCCC)CC1 (stereo not drawn) [Compound 66, Heptadecan-9-yl 8-((2-hydroxyethyl)(8-oxo-8-((4-pentylcyclohexyl)oxy)octyl)amino)octanoate]							6 h Lipid/MC3 G.M. Luc Expression (mice [4]; i.v. administration, 6 h, geometric mean): 5.23; AUC (h*p/s) (mice [4]; i.v. administration, total Luc flux (Table 3C)): 6.76E+11 h*p/s
CCCCCCCCCC(=O)OCCCCCCCN(CCO)CCCCCCCC(=O)OC(CCCCCCCC)CCCCCCCC [Compound 96, 7-((8-(Heptadecan-9-yloxy)-8-oxooctyl)(2-hydroxyethyl)amino)heptyl decanoate]							AUC (p/s*h) (mice [4]; Luc total flux (Table 3D)): 1.209E+012 p/s*h
CCCCCCCCCOC(=O)CCCCCCCN(CCCCCCCC(=O)OC(CCCCCCCC)CCCCCCCC)CCCNC(=O)N(C)C [Compound 110, Heptadecan-9-yl 8-((3-(3,3-dimethylureido)propyl)(8-(nonyloxy)-8-oxooctyl)amino)octanoate]		118 nm		0.13			
CCCCCCCCCOC(=O)CCCCCCCN(CCCCCCCC(=O)OC(CCCCCCCC)CCCCCCCC)CCCNC(=O)NC [Compound 112, Heptadecan-9-yl 8-((3-(3-methylureido)propyl)(8-(nonyloxy)-8-oxooctyl)amino)octanoate]		85.7 nm		0.12			
CCCCCCCCCOC(=O)CCCCCCCN(CCCCCCCC(=O)OC(CCCCCCCC)CCCCCCCC)CCCNC(=S)NC [Compound 113, Heptadecan-9-yl 8-((3-(3-methylthioureido)propyl)(8-(nonyloxy)-8-oxooctyl)amino)octanoate]		69.2 nm		0.15			
CCCCCCCCC(CCCCCCCC)OC(=O)CCCCCCCN(CCO)CCCCCC(=O)OC(CCCCCCCC)C1CC1 (stereo not drawn) [Compound 128, Heptadecan-9-yl 8-((6-((1-cyclopropylnonyl)oxy)-6-oxohexyl)(2-hydroxyethyl)amino)octanoate]		69.4 nm		0.14			

Continued, in another order:

IL-6 (mice [1])	Size (nm) [2]	IP-10 (mice [1])	PDI [2]	SMILES	Total flux (p/s) 0.001 mpk Dose (mice [3])	Total flux (p/s) 0.01 mpk Dose (mice [3])	further results
	65.4 nm		0.11	CCCCCCCCC(CC)OC(=O)CCCN(CCO)CCCCCCCC(=O)OC(CCCCCCCC)CCCCCCCC (stereo not drawn) [Compound 72, Heptadecan-9-yl 8-((2-hydroxyethyl)(4-oxo-4-(undecan-3-yloxy)butyl)amino)octanoate]			
	64.2 nm		0.10	CCCCCCCCC(CC)OC(=O)CCCCCN(CCO)CCCCCCCC(=O)OC(CCCCCCCC)CCCCCCCC (stereo not drawn) [Compound 75, Heptadecan-9-yl 8-((2-hydroxyethyl)(6-oxo-6-(undecan-3-yloxy)hexyl)amino)octanoate]			
130.82		234.35		CCCCCCCCCCCCN(CCO)CCCCCCCCCCCC(=O)OC [Compound 137, Methyl 12-(dodecyl(2-hydroxyethyl)amino)dodecanoate]	7.57E+04 p/s	8.09E+04 p/s	
23.38		172.56		CCCCCCCCCOC(=O)CCCCCCCN(CCO)CCCCCCCC(=O)OCCCCCCCCC [Compound 138, Dinonyl 8,8′-((2-hydroxyethyl)azanediyl)dioctanoate]	2.72E+05 p/s	1.19E+06 p/s	
282.82		187.83		CCCCCCCC/C=C\COC(=O)CCCCCN(CCO)CCCCCC(=O)OC/C=C\CCCCCCCC [Compound 140, Di((Z)-undec-2-en-1-yl) 6,6′-((2-hydroxyethyl)azanediyl)dihexanoate]	2.03E+05 p/s	6.09E+05 p/s	
319.46		4220.55		CCCCCCCCCOC(=O)CCCCCCCN(CCO)CCCCCCCC(=O)N(CCCCCCCC)CCCCCCCC [Compound 144, Nonyl 8-((8-(dioctylamino)-8-oxooctyl)(2-hydroxyethyl)amino)octanoate]	2.72E+06 p/s	2.18E+07 p/s	
